In patent US20260115331A1, “PET IMAGING OF BACTERIAL INFECTION WITH A PET PROBE” (Mayo Foundation for Medical Education and Research, priority 2022, published 2026):

Assays:
[1] = system: E coli; assay: Biodistribution in lung infected mice (E. coli) at 120 min post injection; format: in vivo
[2] = Biodistribution in normal mice at 120 min post injection; format: in vivo; conditions: N = 5, 120 min post injection
Description: The feasibility of the developed PET probe [^68Ga]Ga-H3P2O8 in a mouse model of thigh infection as well as uptake in E. coli has been evaluated. […] The biodistribution of developed PET probe in normal and in thigh infected mice has been assessed (see FIG. 11). […] Micro-PET imaging of normal and thigh-infected mice has also been performed. The site of bacterial infection was evident on micro-PET images (see FIG. 13) with arrows in contrast to the non-infected group of mice. The bacterial site of infection on micro-PET images was confirmed by bacterial culture performed on the biopsied sample. Micro-PET imaging was performed at different time intervals to optimize imaging time.

[3] = system: Klebsiella pneumoniae (K. pneumoniae); assay: Ex vivo biodistribution in osteomyelitis foreign body rat model with K. pneumoniae infection vs inflammation model; parameters: species or system rats; conditions: 120 minutes post-injection, comparable SUVs except bladder and feces (FIG. 34)
Procedure: The acquired PET images were visualized and analyzed for quantifying standardized uptake value (SUV) using image analysis software—MIM 7 software and PMOD. Following final imaging at 120 minutes post-injection, the animal was euthanized, and major organs and infected and inflamed tibia were extracted for gamma counting for ex-vivo biodistribution analysis (see FIG. 22). At the end of last imaging session, rats were euthanized by cardiectomy, and the operated tibia with K-wire or contralateral tibia were aseptically removed. Following removal, tibias were weighed, and Ga-68 radioactivity was counted in 2480 Wizard2 automatic gamma counter for ex-vivo biodistribution assessment. The tibias were then frozen to −80° C. The frozen tibia from each animal was crushed aseptically using a bone pulverizer chilled at −80° C. The crushed tibia without K wire was weighed and vortexed in 1 mL sterile saline. The K wire was also vortexed in 1.0 mL sterile saline separately. The vortexed tibia and K-wire saline suspension were sonicated for 5 minutes. After sonication, 1:10 serial dilutions were prepared in saline and 0.1 mL of each dilution was plated in Trypticase Soy Agar plates with 5% Sheep Blood (TSA II). After 24 hours of incubation at 37° C., the bacterial cultures in tibia suspension and K-wire suspension were quantified. […]

[4] = system: Methicillin-resistant Staphylococcus aureus (MRSA); assay: Ex vivo biodistribution SUV ratios (operated tibia/contralateral tibia), MRSA infection and inflammation; format: in vivo, rats; conditions: 120 minutes post-injection, p<0.05 (FIG. 31)
Procedure: The acquired PET images were visualized and analyzed for quantifying standardized uptake value (SUV) using image analysis software—MIM 7 software and PMOD. Following final imaging at 120 minutes post-injection, the animal was euthanized, and major organs and infected and inflamed tibia were extracted for gamma counting for ex-vivo biodistribution analysis (see FIG. 22). At the end of last imaging session, rats were euthanized by cardiectomy, and the operated tibia with K-wire or contralateral tibia were aseptically removed. Following removal, tibias were weighed, and Ga-68 radioactivity was counted in 2480 Wizard2 automatic gamma counter for ex-vivo biodistribution assessment. The tibias were then frozen to −80° C. […] After 24 hours of incubation at 37° C., the bacterial cultures in tibia suspension and K-wire suspension were quantified. […]
Turning now to FIG. 28, the localization of [^68Ga]Ga-H3P2O8 at an infection was investigated in comparison to [^68Ga]Ga-Citrate and [^18F]FDG. The uptake of [^68Ga]Ga-H3P2O8, [^68Ga]Ga-citrate and [^18F]FDG at 120 minutes post-injection in areas of Methicillin-resistant Staphylococcus aureus (MRSA) infection was determined by ex vivo biodistribution. Additionally, the uptake of [^68Ga]Ga-H3P2O8, [^68Ga]Ga-citrate and [^18F]FDG at 120 minutes post-injection in an inflammation was determined similarly. […]

[5] = n = 3, 2 h post infection with E coli

**Q.** Which results are given for `O=P(O)(O)[O][Ga]1[O]P(=O)(O)[O]1` [[^68Ga]Ga-H3P2O8, [^68Ga]Ga-hydrogen bisphosphate]?
**A.** SUV ± STD, Adipose [1, 5]: 0.85 ± 0.64 SUV; SUV ± STD, Bladder [1, 5]: 3.11 ± 2.62 SUV; SUV ± STD, Blood [1, 5]: 2.09 ± 1.31 SUV; SUV ± STD, Bone [1, 5]: 2.70 ± 0.43 SUV; SUV ± STD, Brain [1, 5]: 0.05 ± 0.01 SUV; SUV ± STD, Cecum [1, 5]: 1.61 ± 1.29 SUV; SUV ± STD, Eye [1, 5]: 1.42 ± 1.91 SUV; SUV ± STD, Feces [1, 5]: 1.39 ± 1.10 SUV; SUV ± STD, Gut [1, 5]: 1.93 ± 0.40 SUV; SUV ± STD, Heart [1, 5]: 0.73 ± 0.07 SUV; SUV ± STD, Kidney-1 [1, 5]: 0.92 ± 0.24 SUV; SUV ± STD, Kidney-2 [1, 5]: 1.10 ± 0.09 SUV; SUV ± STD, Liver [1, 5]: 0.86 ± 0.08 SUV; SUV ± STD, Lung-1 [1, 5]: 2.98 ± 1.02 SUV; SUV ± STD, Lung-2 [1, 5]: 2.56 ± 1.82 SUV; SUV ± STD, Normal Thigh [1, 5]: 0.31 ± 0.18 SUV; SUV ± STD, Skin [1, 5]: 1.46 ± 0.41 SUV; SUV ± STD, Spleen [1, 5]: 0.73 ± 0.03 SUV; SUV ± STD, Stomach [1, 5]: 0.46 ± 0.07 SUV; SUV ± STD, Adipose ([1]; n = 4, 24 h post infection): 1.13 ± 0.34 SUV; SUV ± STD, Bladder ([1]; n = 4, 24 h post infection): 4.04 ± 5.22 SUV; SUV ± STD, Blood ([1]; n = 4, 24 h post infection): 2.75 ± 0.39 SUV; SUV ± STD, Bone ([1]; n = 4, 24 h post infection): 2.65 ± 1.75 SUV; SUV ± STD, Brain ([1]; n = 4, 24 h post infection): 0.11 ± 0.02 SUV; SUV ± STD, Cecum ([1]; n = 4, 24 h post infection): 1.59 ± 0.35 SUV; SUV ± STD, Eye ([1]; n = 4, 24 h post infection): 1.39 ± 1.17 SUV; SUV ± STD, Feces ([1]; n = 4, 24 h post infection): 0.71 ± 0.24 SUV; SUV ± STD, Gut ([1]; n = 4, 24 h post infection): 1.72 ± 0.31 SUV; SUV ± STD, Heart ([1]; n = 4, 24 h post infection): 1.04 ± 0.28 SUV; SUV ± STD, Kidney-1 ([1]; n = 4, 24 h post infection): 1.69 ± 0.66 SUV; SUV ± STD, Kidney-2 ([1]; n = 4, 24 h post infection): 1.44 ± 0.37 SUV; SUV ± STD, Liver ([1]; n = 4, 24 h post infection): 1.89 ± 0.47 SUV; SUV ± STD, Lung-1 ([1]; n = 4, 24 h post infection): 1.52 ± 0.29 SUV; SUV ± STD, Lung-2 ([1]; n = 4, 24 h post infection): 1.46 ± 0.51 SUV; SUV ± STD, Normal Thigh ([1]; n = 4, 24 h post infection): 0.33 ± 0.16 SUV; SUV ± STD, Skin ([1]; n = 4, 24 h post infection): 1.08 ± 0.42 SUV; SUV ± STD, Spleen ([1]; n = 4, 24 h post infection): 1.75 ± 0.56 SUV; SUV ± STD, Stomach ([1]; n = 4, 24 h post infection): 0.34 ± 0.13 SUV; SUV ± STD, Adipose ([2]; Adipose): 0.76 ± 0.38 SUV; SUV ± STD, Bladder ([2]; Bladder): 2.41 ± 2.84 SUV; SUV ± STD, Blood ([2]; Blood): 2.76 ± 0.97 SUV; SUV ± STD, Bone ([2]; Bone): 1.88 ± 1.26 SUV; SUV ± STD, Brain ([2]; Brain): 0.07 ± 0.02 SUV; SUV ± STD, Cecum ([2]; Cecum): 1.33 ± 0.60 SUV; SUV ± STD, Eye ([2]; Eye): 2.30 ± 1.41 SUV; SUV ± STD, Feces ([2]; Feces): 0.82 ± 0.28 SUV; SUV ± STD, Gut ([2]; Gut): 1.15 ± 0.29 SUV; SUV ± STD, Heart ([2]; Heart): 0.87 ± 0.30 SUV; SUV ± STD, Kidney-1 ([2]; Kidney-1): 1.11 ± 0.29 SUV; SUV ± STD, Kidney-2 ([2]; Kidney-2): 0.71 ± 0.20 SUV; SUV ± STD, Liver ([2]; Liver): 1.05 ± 0.42 SUV; SUV ± STD, Lung-1 ([2]; Lung-1): 2.17 ± 0.85 SUV; SUV ± STD, Lung-2 ([2]; Lung-2): 3.22 ± 2.29 SUV; SUV ± STD, Normal Thigh ([2]; Normal Thigh): 0.52 ± 0.23 SUV; SUV ± STD, Skin ([2]; Skin): 0.71 ± 0.38 SUV; SUV ± STD, Spleen ([2]; Spleen): 0.70 ± 0.16 SUV; SUV ± STD, Stomach ([2]; Stomach): 0.49 ± 0.24 SUV; distribution in organs/excrement of infected model compared with inflammation model [3]: similar; uptake as SUV ratios (Operated tibia/contralateral tibia), MRSA vs P. aeruginosa [4]: significant difference in uptake
